We go through 18 compounds from patent publication US20240208909A1, “SUBSTITUTED QUINOLINE DERIVATIVES HAVING SOS1 INHIBITION ACTIVITIES AND USES THEREOF” (Accutar Biotechnology Inc., priority 2022, published 2024).

For test [1], the system named is Phospho-ERK1/2 in DLD1 cells. Nature of the test: Phospho-ERK1/2 expression inhibition in DLD1 cells. The settings on record: Homo sapiens, DLD-1, 4 hours, read-out: DLD1 pERK IC50. In kind it is cell-based. As for the experimental part:
Example 23: Phospho-ERK1/2 Expression Inhibition in DLD1 Cells
DLD1 cells were obtained from American Type Culture Collection (ATCC). DLD1 cells were plated in 96-well plates (VWR #10062-900, or Corning #3904) in 90 uL culture medium at a density of 15,000 cells/well in the RPM11640 growth medium containing 10% FBS and 1% Penicillin Streptomycin, and then incubated at 37° C. overnight. The following day, the test compound was administered to the cells by using 1000×x compound stock solution prepared in DMSO at various concentrations. 1000× compound stock solution was first diluted in culturing medium to 10×, then 10 uL compound medium was added to each well in the cell plates. After administration of the compound, the cells were then incubated at 37° C. for 4 hours. Upon completion, the cells were washed with PBS briefly. 150 uL/well of 4% formaldehyde was added and the plates were incubated at room temperature for 20 mins. The cells were washed with PBS briefly, and permeabilized with 150 uL/well of ice cold 100% methanol for 10 mins. The cells were washed with PBS briefly and blocked with 100 uL/well LI-COR blocking buffer for 1 hr at room temperature with gentle shaking. The cells were incubated overnight at 4° C. with 50 uL primary antibody rabbit anti-Phospho-ERK1/2 (1: 500, Cell Signaling, #4370) diluted in Intercept Blocking Buffer (LI-COR, #927-60001) containing 0.1% Tween 20. The next day, the cells were washed with 200 uL PBS containing 0.1% Tween 20, 5×5 mins at room temperature with gentle shaking, and incubated with 50 uL secondary antibody, IRDye® 800CW Goat anti-Rabbit IgG (LI-COR, #926-32211), 1:1000, in LI-COR blocking buffer with 0.2% Tween 20 for 1 hr at room temperature with gentle shaking. The cells were washed with 200 uL PBS containing 0.1% Tween 20, 5×5 mins at room temperature with gentle shaking. The cells were washed with PBS for 5 mins. 100 uL fresh PBS was added to each well and the plates were imaged on a LI-COR Odyssey CLX plate reader.

In a further test the test system is K562 cells. Kind of test: Cell growth inhibition of K562 cells (CellTiter-Glo). Type of test: cell-based. Particulars: Homo sapiens, 120 h, 5 days. As for the experimental part:
Example 24: Cell Growth Inhibition of K562 Cells
K562 cells were obtained from American Type Culture Collection (ATCC). For cell growth assay, K562 cells were seeded in 96-well plates at 1000 cells/well in 90 μl of RPM11640 growth medium containing 10% FBS and 1% Penicillin Streptomycin, and then incubated at 37° C. for 1 hour. The test compound was administered to the cells by using 1000× compound stock solution prepared in DMSO at various concentrations. 1000× compound stock solution was first diluted in culturing medium to 10×, then 10 uL compound medium was added to each well in the cell plates. After administration of the compound, the cells were then incubated at 37° C. for 5 days. Upon completion, the plates were equilibrated at room temperature for approximately 10 minutes. 100 ul of CellTiter-Glo® Reagent (Promega) was added to each well. The plates were then incubated at room temperature for 10 minutes and luminescence was recorded by EnSpire plate reader (PerkinElmer).

For another test, the target named is SOS1/KRAS-G12D (Homo sapiens (Human), UniProt Q07889). Kind of test: SOS1/KRAS-G12D binding inhibition assay (AlphaScreen). Particulars: GST-SOS1 and 6*His KRAS-G12D, read-out: KrasG12D/SOS1 binding IC50. As for the experimental part: Example 22: SOS1/KRAS-G12D Binding Inhibition Assay
SOS1 binding affinity of candidate compounds was measured by monitoring the interaction of SOS1 with KRAS-G12D in the presence of the test compound. Briefly, 5 nM GST tagged SOS1 proteins (final concentration) were pre-incubated with 50 nM 6*His tagged KRAS-G12D proteins (final concentration) in an assay buffer containing 10 mM HEPES, pH 7.4, 150 mM NaCl, 1 mM DTT, 5 mM MgCl2, 0.1% Tween-20, and 0.05% BSA for 30 minutes. The test compounds in 2% DMSO (final concentration) at various concentrations were then added to the reaction mixture and incubated for another 30 minutes at 4° C. 5 ug/ml GSH AlphaScreen donor beads (PerkinElmer, 6765300) and 5 ug/ml nickel chelate (Ni-NTA) AlphaScreen acceptor beads (PerkinElmer, 6760619C) (final concentrations) were then added to the mixture. After an incubation of 2 hours at 4° C., the fluorescent signals were obtained on the EnVision® 2105 Multilabel Plate Reader (PerkinElmer).
Raw AlphaScreen data were converted to a percentage of inhibition (relative to DMSO) using the following equations: • a) For a given test compound concentration X:
Signal (X)=Signal (SOS1 & KRAS-G12D & compound)-Signal (buffer & KRAS-G12D & compound)
Percentage of inhibition at concentration X=[1−Signal (X)/Signal (DMSO)]*100% b)
The IC50 values were determined by nonlinear regression of plots of [inhibitor] vs. percentage of inhibition with variable slope, analyzed using GraphPad Prism 9.

SOS1/KRAS-G12D, sequence (Q07889 564-1049 limits assumed): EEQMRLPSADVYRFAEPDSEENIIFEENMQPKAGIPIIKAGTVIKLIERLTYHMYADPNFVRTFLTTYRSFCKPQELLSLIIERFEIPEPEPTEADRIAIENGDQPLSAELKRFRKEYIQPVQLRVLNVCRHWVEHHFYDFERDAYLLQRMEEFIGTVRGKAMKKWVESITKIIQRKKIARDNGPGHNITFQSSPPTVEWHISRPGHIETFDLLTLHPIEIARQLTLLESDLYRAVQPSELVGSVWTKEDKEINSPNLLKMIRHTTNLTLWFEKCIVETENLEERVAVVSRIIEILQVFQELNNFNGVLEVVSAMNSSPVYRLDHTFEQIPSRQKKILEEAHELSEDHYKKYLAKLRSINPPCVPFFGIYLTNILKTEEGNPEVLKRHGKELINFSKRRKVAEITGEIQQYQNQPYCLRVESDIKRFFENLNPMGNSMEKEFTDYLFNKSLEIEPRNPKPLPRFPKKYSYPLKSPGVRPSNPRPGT

Turning to `Cc1cc(N[C@H](C)c2cccc(C(F)(F)F)c2C)c2cc(N3CCNCC3)ccc2n1` [Compound 1, (R)-2-methyl-N-(1-(2-methyl-3-(trifluoromethyl)phenyl)ethyl)-6-(piperazin-1-yl)quinolin-4-amine], the IC50 is more than 500 nM in test [1] and 10 to 100 nM on SOS1/KRAS-G12D. Besides, in the test on K562 cells, the GI50 is more than 500 nM.

Compound `Cc1c([C@@H](C)Nc2c(C#N)cnc3ccc(N4CCNCC4)cc23)cccc1C(F)(F)F` [Compound 2, (R)-4-((1-(2-methyl-3-(trifluoromethyl)phenyl)ethyl)amino)-6-(piperazin-1-yl)quinoline-3-carbonitrile] came in with a GI50 in the test on K562 cells of more than 500 nM. At SOS1/KRAS-G12D, the IC50 was more than 100 nM.

As to `Cc1c([C@@H](C)Nc2c(C#N)cnc3ccc(N4CCN(C(=O)C5CCOC5)CC4)cc23)cccc1C(F)(F)F` (stereo partly drawn) [Compound 3, 4-(((R)-1-(2-methyl-3-(trifluoromethyl)phenyl)ethyl)amino)-6-(4-(tetrahydrofuran-3-carbonyl)piperazin-1-yl)quinoline-3-carbonitrile], the IC50 in test [1] is more than 500 nM; on SOS1/KRAS-G12D, more than 100 nM. In addition, in the test with K562 cells, the GI50 is more than 500 nM.

For the compound `Cc1cc(N[C@H](C)c2cccc(C(F)(F)F)c2C)c2cc(N3CCN(C(=O)C4CCOC4)CC3)ccc2n1` (stereo partly drawn) [Compound 4, (4-(2-methyl-4-(((R)-1-(2-methyl-3-(trifluoromethyl)phenyl)ethyl)amino)quinolin-6-yl)piperazin-1-yl)(tetrahydrofuran-3-yl)methanone], the IC50 in test [1] was more than 500 nM; on SOS1/KRAS-G12D it was 10 to 100 nM. In the test on K562 cells, this compound registered a GI50 of 100 to 500 nM.

With `Cc1c([C@@H](C)Nc2ccnc3ccc(N4CCNCC4)cc23)cccc1C(F)(F)F` [Compound 5, (R)-N-(1-(2-methyl-3-(trifluoromethyl)phenyl)ethyl)-6-(piperazin-1-yl)quinolin-4-amine], the GI50 in the test with K562 cells is more than 500 nM. At SOS1/KRAS-G12D, the IC50 fell in the range of 10 to 100 nM.

Turning to `Cc1c([C@@H](C)Nc2ccnc3ccc(N4CCN(C(=O)C5CCOC5)CC4)cc23)cccc1C(F)(F)F` (stereo partly drawn) [Compound 6, (4-(4-(((R)-1-(2-methyl-3-(trifluoromethyl)phenyl)ethyl)amino)quinolin-6-yl)piperazin-1-yl)(tetrahydrofuran-3-yl)methanone], the IC50 in test [1] fell in the range of 150 to 500 nM; at SOS1/KRAS-G12D it was 10 to 100 nM. In the test on K562 cells, this compound returned a GI50 of 100 to 500 nM.

In the test on K562 cells, `CC(=O)N[C@@H]1CCN(c2ccc3ncc(C#N)c(N[C@H](C)c4cccc(C(F)F)c4F)c3c2)C1` [Compound 7, N-((R)-1-(3-cyano-4-(((R)-1-(3-(difluoromethyl)-2-fluorophenyl)ethyl)amino)quinolin-6-yl)pyrrolidin-3-yl)acetamide] registered a GI50 of more than 500 nM. The IC50 on SOS1/KRAS-G12D is more than 100 nM.

As to `C[C@@H](Nc1ccnc2ccc(N3CC[C@@H](NC(=O)OC(C)(C)C)C3)cc12)c1cccc(C(F)F)c1F` [Compound 8, tert-butyl ((R)-1-(4-(((R)-1-(3-(difluoromethyl)-2-fluorophenyl)ethyl)amino)quinolin-6-yl)pyrrolidin-3-yl)carbamate], the figures for the IC50 (in test [1]; at SOS1/KRAS-G12D) were 150 to 500 nM and 10 to 100 nM, respectively. This compound also had a GI50 in the test with K562 cells of more than 500 nM.

With `C[C@@H](Nc1ccnc2ccc(N3CC[C@@H](N)C3)cc12)c1cccc(C(F)F)c1F` [Compound 9, 6-((R)-3-aminopyrrolidin-1-yl)-N-((R)-1-(3-(difluoromethyl)-2-fluorophenyl)ethyl)quinolin-4-amine], the IC50 in test [1] is 150 to 500 nM; on SOS1/KRAS-G12D it was not above 10 nM. For the same compound, the GI50 in the test with K562 cells is 100 to 500 nM.

As for `C[C@@H](Nc1ccnc2ccc(C3CCNCC3)cc12)c1cccc(C(F)F)c1F` [Compound 10, (R)-N-(1-(3-(difluoromethyl)-2-fluorophenyl)ethyl)-6-(piperidin-4-yl)quinolin-4-amine], the IC50 in test [1] was more than 500 nM; on SOS1/KRAS-G12D, 10 to 100 nM. This compound had a GI50 with K562 cells of 100 to 500 nM.

Consider `CC(=O)N[C@@H]1CCN(c2ccc3nccc(N[C@H](C)c4cccc(C(F)F)c4F)c3c2)C1` [Compound 11, N-((R)-1-(4-(((R)-1-(3-(difluoromethyl)-2-fluorophenyl)ethyl)amino)quinolin-6-yl)pyrrolidin-3-yl)acetamide], for which the IC50 is 150 to 500 nM in test [1] and 10 to 100 nM on SOS1/KRAS-G12D. The compound also displayed a GI50 with K562 cells not above 100 nM.

Regarding `CC(=O)N1CCN(c2ccc3nccc(N[C@H](C)c4cccc(C(F)F)c4F)c3c2)CC1` [Compound 12, (R)-1-(4-(4-((1-(3-(difluoromethyl)-2-fluorophenyl)ethyl)amino)quinolin-6-yl)piperazin-1-yl)ethan-1-one], the results for the IC50 (in test [1]; at SOS1/KRAS-G12D) were not above 150 nM and not above 10 nM, respectively. This compound also displayed a GI50 in the test on K562 cells not above 100 nM.

For the compound `Cc1c([C@@H](C)Nc2ccnc3ccc(N4CCOCC4)cc23)cccc1C(F)(F)F` [Compound 37, (R)-N-(1-(2-methyl-3-(trifluoromethyl)phenyl)ethyl)-6-morpholinoquinolin-4-amine], the IC50 in test [1] lay within 150 to 500 nM. Moreover, the GI50 with K562 cells was in the range of 100 to 500 nM.

Take `CC(=O)N1CCN(c2ccc3nccc(N[C@H](C)c4cccc(C(F)(F)F)c4C)c3c2)[C@H](C)C1` [Compound 67, 1-((R)-3-methyl-4-(4-(((R)-1-(2-methyl-3-(trifluoromethyl)phenyl)ethyl)amino)quinolin-6-yl)piperazin-1-yl)ethan-1-one]: the IC50 in test [1] was more than 500 nM. This compound registered a GI50 in the test on K562 cells of more than 500 nM.

With `Cc1c([C@@H](C)Nc2ccnc3ccc(N4CCNC[C@H]4C)cc23)cccc1C(F)(F)F` [Compound 68, N-((R)-1-(2-methyl-3-(trifluoromethyl)phenyl)ethyl)-6-((R)-2-methylpiperazin-1-yl)quinolin-4-amine], the IC50 in test [1] is more than 500 nM. In the test on K562 cells, this compound displayed a GI50 of more than 500 nM.

In the test on K562 cells, `CC(=O)N1CC[C@@](F)(c2ccc3nccc(N[C@H](C)c4cccc(C(F)F)c4F)c3c2)C1` [Compound 86, 1-((R)-3-(4-(((R)-1-(3-(difluoromethyl)-2-fluorophenyl)ethyl)amino)quinolin-6-yl)-3-fluoropyrrolidin-1-yl)ethan-1-one] yielded a GI50 of more than 500 nM. In addition, at SOS1/KRAS-G12D, the IC50 is more than 100 nM.

As to `[2H]C([2H])([2H])O[C@]1(c2ccc3nccc(N[C@H](C)c4cccc(C(F)F)c4F)c3c2)CCN(C(C)=O)C1` [Compound 93, 1-((S)-3-(4-(((R)-1-(3-(difluoromethyl)-2-fluorophenyl)ethyl)amino)quinolin-6-yl)-3-(methoxy-d3)pyrrolidin-1-yl)ethan-1-one], the IC50 in test [1] was not above 150 nM. In the test with K562 cells, this compound displayed a 50% growth inhibitory concentration (GI50) not above 100 nM.

For `[2H]C([2H])([2H])O[C@@]1(c2ccc3nccc(N[C@H](C)c4cccc(C(F)F)c4F)c3c2)CCN(C(C)=O)C1` [Compound 94, 1-((R)-3-(4-(((R)-1-(3-(difluoromethyl)-2-fluorophenyl)ethyl)amino)quinolin-6-yl)-3-(methoxy-d3)pyrrolidin-1-yl)ethan-1-one], in test [1], the IC50 is not above 150 nM. The compound further gave a GI50 with K562 cells not above 100 nM.
